Data as given in ChEMBL document CHEMBL5029175, “Discovery of MK-4688: an Efficient Inhibitor of the HDM2-p53 Protein-Protein Interaction” (J Med Chem, 2021).
pIC50: −log10 of the molar value.

Key:
[1] = Lipophilicity, logD of the compound at pH 7 by RP-HPLC analysis; type: physicochemical; conditions: buffer
HCT-116 = test: cells; conditions: Homo sapiens, HCT-116, 72 h
[2] = molecular target: T1, Tumour suppressor p53/oncoprotein Mdm2 (Homo sapiens, UniProt Q00987); test: Inhibition of N-terminal thioredoxin-His6 tagged HDM2 (17 to 125 residues)/p53 protein-protein interaction (unknown origin) incubated for 2 hrs by TR-FRET assay
T1 sequence (P04637 whole entry, the tested form may be a part): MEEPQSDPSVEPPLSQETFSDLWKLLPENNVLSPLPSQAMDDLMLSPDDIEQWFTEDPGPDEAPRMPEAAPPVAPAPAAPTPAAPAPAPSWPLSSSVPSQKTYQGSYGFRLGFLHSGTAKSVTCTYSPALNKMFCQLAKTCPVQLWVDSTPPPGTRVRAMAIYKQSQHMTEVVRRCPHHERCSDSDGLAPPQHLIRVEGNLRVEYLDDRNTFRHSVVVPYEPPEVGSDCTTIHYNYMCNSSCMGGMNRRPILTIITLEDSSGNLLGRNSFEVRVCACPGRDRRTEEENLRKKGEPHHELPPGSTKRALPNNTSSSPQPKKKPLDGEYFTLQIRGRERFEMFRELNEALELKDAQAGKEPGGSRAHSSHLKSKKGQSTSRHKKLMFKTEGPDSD
T1 sequence (Q00987 whole entry, the tested form may be a part): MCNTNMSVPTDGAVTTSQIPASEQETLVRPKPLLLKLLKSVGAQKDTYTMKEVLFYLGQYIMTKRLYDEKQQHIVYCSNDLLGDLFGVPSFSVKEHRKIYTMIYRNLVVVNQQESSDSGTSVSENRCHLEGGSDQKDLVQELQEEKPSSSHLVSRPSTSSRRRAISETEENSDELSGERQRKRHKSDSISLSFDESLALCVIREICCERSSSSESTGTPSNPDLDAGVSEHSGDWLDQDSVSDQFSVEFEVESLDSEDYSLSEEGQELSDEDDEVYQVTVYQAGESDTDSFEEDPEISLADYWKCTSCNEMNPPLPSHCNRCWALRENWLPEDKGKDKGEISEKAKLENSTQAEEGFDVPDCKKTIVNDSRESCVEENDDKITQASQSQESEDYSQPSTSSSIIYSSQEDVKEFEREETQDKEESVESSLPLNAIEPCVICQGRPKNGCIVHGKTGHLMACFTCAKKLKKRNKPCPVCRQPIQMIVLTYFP

[3] = molecular target: T1, Tumour suppressor p53/oncoprotein Mdm2; test: Inhibition of HDM2/p53 interaction in human HCT-116 cells expressing p53RE/Bla incubated for 16 hrs by beta-lactamase reporter gene assay; type: cell-based
[4] = Selectivity index, ratio of IC50 for inhibition of HDM2/p53 interaction in human HCT-116 cells expressing p53/Bla to IC50 for inhibition of N-terminal thioredoxin-His6 tagged HDM2 (17 to 125 residues)/p53 protein-protein interaction (unknown origin); type: cell-based
[5] = Mean residence time in dog; type: ADME, Canis lupus familiaris; conditions: in vivo
[6] = Unbound clearance in dog; type: ADME, Canis lupus familiaris; conditions: in vivo
[7] = Bioavailability in dog; type: ADME, organism-based, Canis lupus familiaris; conditions: in vivo
[8] = Unbound clearance in rat; type: ADME; conditions: in vivo
[9] = Bioavailability in rat; type: ADME, organism-based; conditions: in vivo
[10] = Mean residence time in rat; type: ADME; conditions: in vivo

SMILES | logD [1] | pIC50 (HCT-116) | pIC50 [2] | pIC50 [3] | also measured
C[C@@H](Nc1nc(C(=O)O)nc2nc(-c3ccc4sccc4c3)n(Cc3ccc(Cl)cc3)c12)C1CC1 | 2.2 |  |  |  | 
C[C@H]1CC[C@H](Cn2c(N3CCOC[C@H]3c3ccccc3)nc3nc(-c4noc(=O)[nH]4)nc(-c4cccc(Cl)c4)c32)CC1 | 3.15 | 6.14 | 8.89 | 6.95 | 
CC(C)c1ccnc(-c2nc3nc(C(=O)O)nc(N[C@H](C)C4CCC4)c3n2Cc2ccc(C(F)(F)F)cc2)c1 | 2.66 |  | 8.40 |  | 
C[C@@H](Nc1nc(-c2nnc[nH]2)nc2nc(N3CCOC[C@H]3c3ccccc3)n(C[C@H]3CC[C@H](C)CC3)c12)C1CCC1 |  |  | 7.96 | 6.14 | Ratio IC50 [4]: 66
CC(C)c1ccnc(-c2nc3nc(C(=O)O)nc(N[C@H](C)C4CCC4)c3n2Cc2ccc(OC(F)(F)F)c(F)c2)c1 | 2.84 |  |  |  | 
C[C@H]1CC[C@H](Cn2c(N3CCOC[C@H]3c3ccccc3)nc3nc(-c4noc(=O)[nH]4)nc(-c4cncc(Cl)c4)c32)CC1 | 2.55 | 5.71 |  | 6.40 | 
CCOC(c1nc2cc(-c3noc(=O)[nH]3)nc(-c3cncc(Cl)c3)c2n1C[C@H]1CC[C@H](C)CC1)C1CC1 (stereo partly drawn) | 2.34 | 6.33 |  |  | MRT [5]: 1.6 h; CL free [6]: 206 mL/min/kg
C[C@H]1CC[C@H](Cn2c(N3CCOC[C@H]3c3ccccc3)nc3nc(-c4noc(=O)[nH]4)nc(-c4ccccc4)c32)CC1 | 2.72 | 5.20 |  | 6.20 | 
CCO[C@@H](c1nc2cc(-c3noc(=O)[nH]3)nc(-c3cncc(Cl)c3)c2n1[C@H](C)[C@H]1CC[C@H](C)CC1)C1CC1 | 2.75 | 7.51 |  |  | MRT [5]: 3.1 h; bioavailability [7]: 93%; CL free [8]: 2060 mL/min/kg; bioavailability [9]: 54%; CL free [6]: 323 mL/min/kg; MRT [10]: 30 min
CC(C)c1ccnc(-c2nc3nc(C(=O)O)nc(N[C@H](C)C4CCC4)c3n2Cc2ccc(OC(F)(F)F)cc2)c1 | 2.81 |  | 7.92 |  | 
CC(C)c1ccnc(-c2nc3nc(C(=O)O)nc(N[C@H](C)C4CCC4)c3n2C[C@H]2CC[C@H](C)CC2)c1 (mixture of isomers) | 2.94 |  | 8.66 |  | 
COCC(C)c1nc2cc(-c3noc(=O)[nH]3)nc(-c3cncc(Cl)c3)c2n1C[C@H]1CC[C@H](C)CC1 (stereo partly drawn) | 2.03 | 5.95 |  |  | MRT [5]: 1.2 h; CL free [6]: 171 mL/min/kg
C[C@@H](Nc1nc(C(=O)O)nc2nc(NC3CCCCC3)n(Cc3ccc(C(F)(F)F)cc3)c12)C1CCC1 | 2.62 |  |  |  | 
C[C@@H](Nc1nc(C(=O)O)nc2nc(N3CCOC[C@@H]3c3ccccc3)n(Cc3ccc(C(F)(F)F)cc3)c12)C1CCC1 | 2.34 |  |  |  | 
C[C@@H](Nc1nc(-c2nc(=O)n(C)[nH]2)nc2nc(N3CCOC[C@H]3c3ccccc3)n(C[C@H]3CC[C@H](C)CC3)c12)C1CCC1 |  |  | 8.82 | 6.69 | Ratio IC50 [4]: 135
Cc1cccc(-c2nc3nc(C(=O)O)nc(NCC4CC4)c3n2CC2CCCCC2)c1 | 3.7 |  | 5.08 |  | 

SMILES | logD [1] | pIC50 (HCT-116) | pIC50 [2] | pIC50 [3] | also measured
CC(C)c1ccnc(-c2nc3nc(C(=O)O)nc(N[C@H](C)C4CCC4)c3n2C[C@H]2CC[C@@H](C)CC2)c1 | 2.7 |  | 6.46 |  | 
COCC(c1ccccc1)c1nc2cc(-c3noc(=O)[nH]3)nc(-c3cncc(Cl)c3)c2n1C[C@H]1CC[C@H](C)CC1 (mixture of isomers) | 2.62 | 6.35 |  |  | 
CC(C)c1ccnc(-c2nc3nc(C(=O)O)nc(N[C@H](C)C4CCC4)c3n2Cc2ccc(C(F)(F)F)s2)c1 | 2.67 |  |  |  | 
COCC(C)c1nc2cc(-c3noc(=O)[nH]3)nc(-c3cncc(Cl)c3)c2n1[C@H](C)[C@H]1CC[C@H](C)CC1 (stereo partly drawn) | 2.59 | 6.65 |  |  | MRT [5]: 3.8 h; bioavailability [7]: 54%; CL free [8]: 1150 mL/min/kg; bioavailability [9]: 46%; CL free [6]: 59 mL/min/kg; MRT [10]: 24 min
C[C@@H](Nc1nc(C(=O)O)nc2nc(N[C@@H](CO)c3ccccc3)n(Cc3ccc(C(F)(F)F)cc3)c12)C1CCC1 | 1.94 |  | 8.82 |  | 
C[C@H]1CC[C@H](Cn2c(N3CCC[C@H]3C(F)(F)F)nc3cc(-c4noc(=O)[nH]4)nc(-c4cncc(Cl)c4)c32)CC1 | 2.85 | 7.00 |  |  | MRT [5]: 2.5 h; CL free [8]: 11233 mL/min/kg; bioavailability [9]: 11%; CL free [6]: 1500 mL/min/kg; MRT [10]: 21 min
C[C@H]1CC[C@H](Cn2c(N3CCC[C@H]3CF)nc3cc(-c4noc(=O)[nH]4)nc(-c4cncc(Cl)c4)c32)CC1 | 2.42 | 6.77 |  |  | MRT [5]: 1.5 h; bioavailability [7]: 37%; CL free [8]: 3244 mL/min/kg; bioavailability [9]: 7%; CL free [6]: 920 mL/min/kg; MRT [10]: 15 min
C[C@@H](Nc1nc(CO)nc2nc(N3CCOC[C@H]3c3ccccc3)n(C[C@H]3CC[C@H](C)CC3)c12)C1CCC1 |  |  |  | 5.39 | Ratio IC50 [4]: 52
C[C@@H]1COC[C@@H](C)N1c1nc2cc(-c3noc(=O)[nH]3)nc(-c3cncc(Cl)c3)c2n1C[C@H]1CC[C@H](C)CC1 | 2.32 | 6.61 |  |  | MRT [5]: 3.9 h; CL free [8]: 2166 mL/min/kg; bioavailability [9]: 9%; CL free [6]: 131 mL/min/kg; MRT [10]: 18 min
C[C@@H](Nc1nc(-c2n[nH]c(=O)n2C)nc2nc(N3CCOC[C@H]3c3ccccc3)n(C[C@H]3CC[C@H](C)CC3)c12)C1CCC1 |  |  | 7.82 | 6.00 | Ratio IC50 [4]: 66
C[C@@H](Nc1nc(-c2n[nH]c(=O)o2)nc2nc(N3CCOC[C@H]3c3ccccc3)n(C[C@H]3CC[C@H](C)CC3)c12)C1CCC1 |  |  | 8.70 | 6.85 | Ratio IC50 [4]: 70
Cc1cncc(-c2nc(-c3noc(=O)[nH]3)nc3nc(N4CCOC[C@H]4c4ccccc4)n(C[C@H]4CC[C@H](C)CC4)c23)c1 | 2.17 | 5.11 |  | 5.43 | 
C[C@H]1CC[C@H](Cn2c(N3CCOC[C@H]3c3ccccc3)nc3cc(-c4noc(=O)[nH]4)nc(-c4cncc(Cl)c4)c32)CC1 | 2.69 | 7.03 | 9.21 | 7.51 | MRT [5]: 1.7 h; bioavailability [7]: 39%; CL free [8]: 20745 mL/min/kg; bioavailability [9]: 5%; CL free [6]: 1607 mL/min/kg; MRT [10]: 24 min
CC(C)c1cccc(-c2nc3nc(C(=O)O)nc(N[C@H](C)C4CCC4)c3n2Cc2ccc(C(F)(F)F)cc2)c1 | 2.86 |  | 7.82 |  | 
C[C@@H](Nc1nc(C(=O)O)nc2nc(N3CCOC[C@H]3c3ccccc3)n(Cc3ccc(C(F)(F)F)cc3)c12)C1CCC1 | 2.32 |  | 8.74 |  | 
C[C@@H](Nc1nc(C(=O)O)nc2nc(N3CCOC[C@H]3c3ccccc3)n(C[C@H]3CC[C@H](C)CC3)c12)C1CCC1 |  |  |  | 5.96 | Ratio IC50 [4]: 5500
